# Measured values: patent US7138361B2, “Herbicidal heterocycles” (E. I. du Pont de Nemours and Company, priority 2000, dated 2006)
# What was measured:
# Type in all cases: in vivo
# [1] = tested on: Surinam grass (Brachiaria decumbens); assay: Test C preemergence
# Procedure, shortened: (§1)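 Visual injury scores of 0–100, with 100 meaning complete control, were given relative to controls after 12–14 days in the greenhouse. Treatments used a surfactant-containing non-phytotoxic solvent formulation, sprayed on seeded pots preemergence or on 1–4-leaf plants of 2–18 cm postemergence.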
# kochia (Kochia scoparia) = assay: Test C preemergence
# Procedure, shortened: as §1
# [2] = tested on: woolly cupgrass (Eriochloa villosa); assay: Test C preemergence
# Procedure, shortened: as §1
# [3] = tested on: bermudagrass (Cynodon dactylon); assay: Test C preemergence
# Procedure, shortened: as §1
# Nightshade [4] = assay: Test C preemergence
# [5] = tested on: velvetleaf (Abutilon theophrasti); assay: Test C preemergence
# Procedure, shortened: as §1
# [6] = tested on: giant foxtail (Setaria faberii); assay: Test C preemergence
# Procedure, shortened: as §1
# corn (Zea mays) = assay: Test C preemergence
# Procedure, shortened: as §1
# [7] = tested on: common ragweed (Ambrosia elatior); assay: Test C preemergence
# Procedure, shortened: as §1
# [8] = tested on: yellow nutsedge (Cyperus esculentus); assay: Test C preemergence
# Procedure, shortened: as §1
# [9] = tested on: crabgrass (Digitaria sanguinalis); assay: Test C preemergence
# Procedure, shortened: as §1
# soybean (Glycine max) = assay: Test C preemergence
# Procedure, shortened: as §1
# [10] = tested on: lambsquarters (Chenopodium album); assay: Test C preemergence
# Procedure, shortened: as §1
# [11] = tested on: morningglory (Ipomoea hederacea); assay: Test C preemergence
# Procedure, shortened: as §1
# [12] = tested on: goosegrass (Eleusine indica); assay: Test C preemergence
# Procedure, shortened: as §1
# [13] = tested on: pigweed (Amaranthus retroflexus); assay: Test C preemergence
# Procedure, shortened: as §1
# Sunflower = assay: Test C preemergence; details: Rate 125 g/ha; scale 0 to 100, 0 no effect, 100 complete control
# [14] = tested on: cocklebur (Xanthium strumarium); assay: Test C preemergence
# Procedure, shortened: as §1
# [15] = tested on: johnsongrass (Sorghum halepense); assay: Test C preemergence
# Procedure, shortened: as §1
# Nightshade [16] = assay: Test C preemergence; details: Rate 500 g/ha, visual evaluation after 12 to 14 days
# [17] = tested on: duck salad (Heteranthera limosa); assay: Test C flooded paddy test; details: for Ducksalad plant response rating: Flooded Paddy, scale 0 to 100, 0 no effect, 100 complete control
# Procedure, shortened: (§2)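 Plants were grown to the 2-leaf stage under flooded paddy conditions and treated. They were then kept in a greenhouse for 12 to 14 days and visually rated against untreated controls on a 0–100 scale, where 0 is no effect and 100 is complete control.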
# [18] = tested on: smallflower flatsedge (Cyperus difformis); assay: Test C flooded paddy test; details: for Flatsedge plant response rating: Flooded Paddy, scale 0 to 100, 0 no effect, 100 complete control
# Procedure, shortened: as §2
# rice (Oryza saliva) = assay: Test C flooded paddy test; details: for Rice plant response rating: Flooded Paddy, scale 0 to 100, 0 no effect, 100 complete control
# Procedure, shortened: as §2
# [19] = Rate 125 g/ha, scale 0 to 100, 0 no effect, 100 complete control
# [20] = preemergence, Rate 62 g/ha, scale 0 to 100
# [21] = preemergence, Rate 500 g/ha, visual evaluation after 12 to 14 days
# [22] = preemergence, Rate 250 g/ha, scale 0 to 100, 0 no effect, 100 complete control
# [23] = flooded paddy test, Rate 125 g/ha, scale 0 to 100 (0 no effect, 100 complete control)
# [24] = flooded paddy test, Rate 16 g/ha, visually evaluated after 12 to 14 days, 0 = no effect, 100 = complete control
# [25] = flooded paddy test, Rate 62 g/ha, visually evaluated after 12 to 14 days, 0 = no effect, 100 = complete control
# [26] = flooded paddy test, under head Rate 16 g/ha, (own rate not given), after 12 to 14 days
structure (smiles),measurement,setting,value
CCC(CC)c1ccn(C2OCN(c3cccc(OC(F)F)c3)C2=O)n1 (stereo not shown) [Compound 131],"Plant response rating, Surinam grass",[1]; [19],100
same,"Plant response rating, Surinam grass",[1]; [20],100
same,"Plant response rating (0 to 100), Surinam grass",[1]; [21],100
same,"Plant response rating, Surinam grass",[1]; [22],100
same,"Plant response rating, Kochia",kochia (Kochia scoparia); [19],100
same,"Plant response rating, Kochia",kochia (Kochia scoparia); [20],100
same,"Plant response rating (0 to 100), Kochia",kochia (Kochia scoparia); [21],100
same,"Plant response rating, Kochia",kochia (Kochia scoparia); [22],100
same,"Plant response rating, Cupgrass, Woolly",[2]; [19],100
same,"Plant response rating, Cupgrass, Woolly",[2]; [20],100
same,"Plant response rating (0 to 100), Cupgrass, Woolly",[2]; [21],100
same,"Plant response rating, Cupgrass, Woolly",[2]; [22],100
same,"Plant response rating, Bermudagrass",[3]; [19],100
same,"Plant response rating, Bermudagrass",[3]; [20],100
same,"Plant response rating (0 to 100 where 0 is no effect and 100 is complete control), Bermudagrass",[3]; [21],100
same,"Plant response rating, Bermudagrass",[3]; [22],100
same,"Plant response rating, Nightshade","Nightshade [4]; Rate 62 g/ha, scale 0 to 100",90
same,"Plant response rating, Nightshade",Nightshade [4]; [19],100
same,"Plant response rating, Nightshade","Nightshade [4]; Rate 250 g/ha, scale 0 to 100, 0 no effect, 100 complete control",100
same,"Plant response rating, Velvetleaf",[5]; [19],30
same,"Plant response rating, Velvetleaf",[5]; [20],20
same,"Plant response rating (0 to 100), Velvetleaf",[5]; [21],70
same,"Plant response rating, Velvetleaf",[5]; [22],70
same,"Plant response rating, Foxtail, Giant",[6]; [19],100
same,"Plant response rating, Foxtail, Giant",[6]; [20],90
same,"Plant response rating (0 to 100), Foxtail, Giant",[6]; [21],100
same,"Plant response rating, Foxtail, Giant",[6]; [22],100
same,"Plant response rating, Corn",corn (Zea mays); [19],100
same,"Plant response rating, Corn",corn (Zea mays); [20],100
same,"Plant response rating (0 to 100), Corn",corn (Zea mays); [21],100
same,"Plant response rating, Corn",corn (Zea mays); [22],100
same,"Plant response rating, Ragweed, Common",[7]; [19],0
same,"Plant response rating, Ragweed, Common",[7]; [20],0
same,"Plant response rating (0 to 100), Ragweed, Common",[7]; [21],100
same,"Plant response rating, Ragweed, Common",[7]; [22],0
same,"Plant response rating, Nutsedge",[8]; [19],90
same,"Plant response rating, Nutsedge",[8]; [20],0
same,"Plant response rating (0 to 100), Nutsedge",[8]; [21],100
same,"Plant response rating, Nutsedge",[8]; [22],90
same,"Plant response rating, Crabgrass",[9]; [19],100
same,"Plant response rating, Crabgrass",[9]; [20],100
same,"Plant response rating (0 to 100), Crabgrass",[9]; [21],100
same,"Plant response rating, Crabgrass",[9]; [22],100
same,"Plant response rating, Soybean",soybean (Glycine max); [19],0
same,"Plant response rating, Soybean",soybean (Glycine max); [20],0
same,"Plant response rating (0 to 100), Soybean",soybean (Glycine max); [21],40
same,"Plant response rating, Soybean",soybean (Glycine max); [22],40
same,"Plant response rating, Lambsquarters",[10]; [19],100
same,"Plant response rating, Lambsquarters",[10]; [20],100
same,"Plant response rating (0 to 100), Lambsquarters",[10]; [21],100
same,"Plant response rating, Lambsquarters",[10]; [22],100
same,"Plant response rating, Morningglory",[11]; [19],60
same,"Plant response rating, Morningglory",[11]; [20],0
same,"Plant response rating (0 to 100), Morningglory",[11]; [21],90
same,"Plant response rating, Morningglory",[11]; [22],90
same,"Plant response rating, Goosegrass",[12]; [19],100
same,"Plant response rating, Goosegrass",[12]; [20],100
same,"Plant response rating (0 to 100), Goosegrass",[12]; [21],100
same,"Plant response rating, Goosegrass",[12]; [22],100
same,"Plant response rating, Pigweed",[13]; [19],90
same,"Plant response rating, Pigweed",[13]; [20],90
same,"Plant response rating (0 to 100), Pigweed",[13]; [21],100
same,"Plant response rating, Pigweed",[13]; [22],100
same,"Plant response rating, Sunflower",Sunflower,20
same,"Plant response rating, Cocklebur",[14]; [19],0
same,"Plant response rating, Cocklebur",[14]; [20],0
same,"Plant response rating (0 to 100), Cocklebur",[14]; [21],30
same,"Plant response rating, Cocklebur",[14]; [22],30
same,"Plant response rating, Johnsongrass",[15]; [19],70
same,"Plant response rating, Johnsongrass",[15]; [20],30
same,"Plant response rating (0 to 100), Johnsongrass",[15]; [21],100
same,"Plant response rating, Johnsongrass",[15]; [22],80
same,"Plant response rating (0 to 100), Nightshade",Nightshade [16],100
same,Ducksalad plant response rating,[17]; Rate 250 g/ha,100
same,Ducksalad plant response rating,[17]; Rate 500 g/ha,100
same,"Plant response rating, Ducksalad",[17]; [23],100
same,"Plant response rating (scale 0 to 100), Ducksalad",[17]; [24],70
same,"Plant response rating (scale 0 to 100), Ducksalad",[17]; [25],80
same,"Plant response rating (scale 0 to 100), Ducksalad",[17]; [26],20
same,Flatsedge plant response rating,[18]; Rate 250 g/ha,100
same,Flatsedge plant response rating,[18]; Rate 500 g/ha,100
same,"Plant response rating, Flatsedge",[18]; [23],100
same,"Plant response rating (scale 0 to 100), Flatsedge",[18]; [24],90
same,"Plant response rating (scale 0 to 100), Flatsedge",[18]; [25],90
same,"Plant response rating (scale 0 to 100), Flatsedge",[18]; [26],90
same,Rice plant response rating,rice (Oryza saliva); Rate 250 g/ha,80
same,Rice plant response rating,rice (Oryza saliva); Rate 500 g/ha,90
same,"Plant response rating, Rice",rice (Oryza saliva); [23],15
same,"Plant response rating (scale 0 to 100), Rice",rice (Oryza saliva); [24],0
same,"Plant response rating (scale 0 to 100), Rice",rice (Oryza saliva); [25],0
same,"Plant response rating (scale 0 to 100), Rice",rice (Oryza saliva); [26],0
